# Key:
# SK-Hep1 = assay: Cell Titer-Glo viability, SK-Hep1; format: cell-based; settings: Homo sapiens
# Experimental: The efficacy of compound 47 against HCC proliferation was tested on a wider panel of HCC cell lines: Hep3B ([…]), Hs817T (▪), PLC/PRF/5 (▴) and SK-Hep 1 (▾), as determined by Cell Titer-Glo assay.
# Cells were plated at 5000-7000 cells/per well and incubated for 24 h before treatment. […] Cell Titer-Glo (Promega, Madison, Wis.) assay was performed according to manufacturer's instruction with luminescence detected on SpectraMax M5 (Molecular Devices, Sunnyvale, Calif.). Data was expressed as percentage of viability vs. vehicle-treated controls.
# Accordingly, Compound 47 was screened against a larger panel of 4 additional HCC cell lines.
# [1] = system: phospho-Erk, phospho-Akt, PCNA, cyclin D1, cleaved PARP, Bax, Bcl-xL; assay: Immunoblot of signalling, cell cycling and apoptosis markers in HuH7 or HepG2; format: cell-based, human; settings: HuH7 or HepG2, 0, 1, 5 or 10 μM, 24 h
# Experimental: HuH7 or HepG2 cells were treated with increasing concentration of Compound 47 (0, 1, 5 or 10 μM) for 24 h. Cell lysates were harvested and immunoblotted against cleaved PARP, phospho-Erk, phospho-Akt, PCNA, cyclin D1, Bax and Bcl-xL, with HSP60 as loading control.
# Protein concentrations were assayed by BCA method (Pierce, Rockford, Ill.). Samples were resolved using 6-10% SDS-PAGE and transferred to nitrocellulose or PVDF membranes by tank transfer. Immunodetection was by chemiluminescence (SuperSignal, Pierce) using specific antibodies diluted in PBS with 0.05% (v/v) Tween 20 and 5% (w/v) powdered milk or BSA. Anti-phospho-IGF-1R, anti-phospho-EphA2, anti-phospho-Erk, anti-phospho-Akt, anti-Bax, anti-BCL-xL were from Cell Signaling Technology (Beverly, Mass.); anti-PCNA and anti-HSP60 from Santa Cruz Biotechnology (Santa Cruz, Calif.); anti-cyclin-D1 from BD Pharmingen (San Jose, Calif.). Secondary antibodies were anti-mouse and anti-rabbit HRP-conjugated antibodies (Pierce).
# (§1) Next, the mechanism of Compound 47's anti-proliferative effects was investigated. […] However, there was little effect on the mitochondrial apoptotic players Bax and BCL-xL.
# caspase-3 = assay: Caspase-3 activity assay in HuH7 and HepG2; format: cell-based, human; settings: HuH7 and HepG2, 24 h, Ac-DEVD-AMC hydrolysis
# Experimental: HuH7 (darker bar) and HepG2 (lighter bar) cells treated as described in FIG. 4 were harvested for caspase-3 assay performed by the catalytic hydrolysis of fluorogenic Ac-DEVD-AMC. Results were expressed as a normalized RFU per μg lysate per h of incubation with the AMC substrate (n=3).
# Cells were subjected to Compound 47 treatment for 24 h prior to harvesting. Caspase-3 activities were determined by as previously described (Ho HK, Pok S, Streit S, Ruhe J E, Hart S, Lim K S, et al. Fibroblast growth factor receptor 4 regulates proliferation, anti-apoptosis and alpha-fetoprotein secretion during hepatocellular carcinoma progression and represents a potential target for therapeutic intervention. J Hepatol 2009 January; 50(1):118-127). Data were expressed as RFU/μg lysate/h incubation and error bars in terms of SD with n=3.
# as §1
# IGF-1R = molecular target: T1, IGF-1R (Homo sapiens, UniProt P08069); assay: Human phospho-RTK array, HuH7: IGF-1R; format: cell-based; settings: 24 h, untreated 0.19
# T1 construct: we examined the constitutively phosphorylated IGF-1R, EphA2 and Tyro3; endogenous in cells; host or cells: HuH7
# Experimental: (§2) Kinase phosphorylation changes were determined with human phospho-RTK array.
# (§3) Cells harvesting, hybridization with RTK array and incubation with anti-phosphotyrosine were performed according to manufacturer's instruction. Imaging and quantification of the spots intensities was with Fujifilm LAS-3000 (Tokyo, Japan). Average signal of the duplicate spots for each RTK was determined.
# EphA2 [2] = molecular target: T2, EphA2 (Homo sapiens, UniProt P29317); assay: Human phospho-RTK array, HuH7: EphA2; format: cell-based; settings: 24 h, untreated 0.07
# T2 construct: we examined the constitutively phosphorylated IGF-1R, EphA2 and Tyro3; endogenous in cells; host or cells: HuH7
# Experimental: as §2, §3
# Met = molecular target: T3, Met (Homo sapiens, UniProt P08581); assay: Human phospho-RTK array, HuH7: Met; format: cell-based; settings: 24 h, untreated 0.05
# T3 construct: endogenous in cells; host or cells: HuH7
# Experimental: as §2, §3
# Ron = molecular target: T4, Ron (Homo sapiens, UniProt Q04912); assay: Human phospho-RTK array, HuH7: Ron; format: cell-based; settings: 24 h, untreated 0.04
# T4 construct: endogenous in cells; host or cells: HuH7
# Experimental: as §2, §3
# EphA2 [3] = molecular target: T2, EphA2; assay: Immunoprecipitation / anti-phosphotyrosine blot of EphA2 in HuH7; format: cell-based; settings: HuH7, 24 h; Compound 47 1, 5 or 10 μM, sunitinib 10 μM
# EGFR = molecular target: T5, EGFR (Homo sapiens, UniProt P00533); format: cell-based
# T5 construct: Cells treated similarly were immunoprecipitated with anti-EGFR, anti-EphA2 and anti-Tyro3; endogenous in cells; host or cells: HuH7
# T1 sequence (P08069 31-1367): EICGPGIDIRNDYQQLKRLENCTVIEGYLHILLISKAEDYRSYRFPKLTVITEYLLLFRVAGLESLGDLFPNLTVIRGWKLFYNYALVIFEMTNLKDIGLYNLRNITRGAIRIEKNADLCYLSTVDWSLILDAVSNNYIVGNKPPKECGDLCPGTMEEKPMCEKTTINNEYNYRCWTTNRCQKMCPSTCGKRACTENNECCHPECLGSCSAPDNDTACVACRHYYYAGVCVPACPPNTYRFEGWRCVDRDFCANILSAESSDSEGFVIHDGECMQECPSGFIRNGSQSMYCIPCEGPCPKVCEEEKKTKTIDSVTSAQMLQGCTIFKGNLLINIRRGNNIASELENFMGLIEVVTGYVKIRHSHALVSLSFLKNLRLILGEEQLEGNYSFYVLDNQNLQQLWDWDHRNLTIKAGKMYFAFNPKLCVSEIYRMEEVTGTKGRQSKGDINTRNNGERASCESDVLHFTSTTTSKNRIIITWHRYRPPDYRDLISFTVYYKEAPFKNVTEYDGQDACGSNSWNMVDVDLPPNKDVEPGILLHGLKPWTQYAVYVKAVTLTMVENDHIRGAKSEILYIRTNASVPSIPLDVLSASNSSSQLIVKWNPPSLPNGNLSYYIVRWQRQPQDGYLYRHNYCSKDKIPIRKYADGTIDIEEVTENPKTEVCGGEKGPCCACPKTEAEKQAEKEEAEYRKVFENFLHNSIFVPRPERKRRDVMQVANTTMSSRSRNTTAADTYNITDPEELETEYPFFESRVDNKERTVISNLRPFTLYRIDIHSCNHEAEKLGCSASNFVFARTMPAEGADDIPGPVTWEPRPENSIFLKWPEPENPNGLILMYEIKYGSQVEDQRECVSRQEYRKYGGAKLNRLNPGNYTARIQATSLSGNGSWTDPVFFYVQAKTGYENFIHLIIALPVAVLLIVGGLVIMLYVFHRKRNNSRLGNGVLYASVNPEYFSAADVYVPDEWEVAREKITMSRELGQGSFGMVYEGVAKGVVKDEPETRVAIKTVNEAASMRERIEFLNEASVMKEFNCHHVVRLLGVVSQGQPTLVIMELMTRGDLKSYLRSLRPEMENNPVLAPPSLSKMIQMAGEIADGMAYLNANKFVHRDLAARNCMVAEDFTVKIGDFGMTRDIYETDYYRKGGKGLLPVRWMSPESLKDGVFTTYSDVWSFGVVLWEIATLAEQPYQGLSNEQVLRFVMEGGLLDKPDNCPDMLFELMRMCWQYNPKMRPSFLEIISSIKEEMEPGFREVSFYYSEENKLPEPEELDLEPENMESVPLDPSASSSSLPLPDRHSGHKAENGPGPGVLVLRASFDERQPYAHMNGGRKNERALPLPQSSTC
# T3 sequence (P08581 25-1390): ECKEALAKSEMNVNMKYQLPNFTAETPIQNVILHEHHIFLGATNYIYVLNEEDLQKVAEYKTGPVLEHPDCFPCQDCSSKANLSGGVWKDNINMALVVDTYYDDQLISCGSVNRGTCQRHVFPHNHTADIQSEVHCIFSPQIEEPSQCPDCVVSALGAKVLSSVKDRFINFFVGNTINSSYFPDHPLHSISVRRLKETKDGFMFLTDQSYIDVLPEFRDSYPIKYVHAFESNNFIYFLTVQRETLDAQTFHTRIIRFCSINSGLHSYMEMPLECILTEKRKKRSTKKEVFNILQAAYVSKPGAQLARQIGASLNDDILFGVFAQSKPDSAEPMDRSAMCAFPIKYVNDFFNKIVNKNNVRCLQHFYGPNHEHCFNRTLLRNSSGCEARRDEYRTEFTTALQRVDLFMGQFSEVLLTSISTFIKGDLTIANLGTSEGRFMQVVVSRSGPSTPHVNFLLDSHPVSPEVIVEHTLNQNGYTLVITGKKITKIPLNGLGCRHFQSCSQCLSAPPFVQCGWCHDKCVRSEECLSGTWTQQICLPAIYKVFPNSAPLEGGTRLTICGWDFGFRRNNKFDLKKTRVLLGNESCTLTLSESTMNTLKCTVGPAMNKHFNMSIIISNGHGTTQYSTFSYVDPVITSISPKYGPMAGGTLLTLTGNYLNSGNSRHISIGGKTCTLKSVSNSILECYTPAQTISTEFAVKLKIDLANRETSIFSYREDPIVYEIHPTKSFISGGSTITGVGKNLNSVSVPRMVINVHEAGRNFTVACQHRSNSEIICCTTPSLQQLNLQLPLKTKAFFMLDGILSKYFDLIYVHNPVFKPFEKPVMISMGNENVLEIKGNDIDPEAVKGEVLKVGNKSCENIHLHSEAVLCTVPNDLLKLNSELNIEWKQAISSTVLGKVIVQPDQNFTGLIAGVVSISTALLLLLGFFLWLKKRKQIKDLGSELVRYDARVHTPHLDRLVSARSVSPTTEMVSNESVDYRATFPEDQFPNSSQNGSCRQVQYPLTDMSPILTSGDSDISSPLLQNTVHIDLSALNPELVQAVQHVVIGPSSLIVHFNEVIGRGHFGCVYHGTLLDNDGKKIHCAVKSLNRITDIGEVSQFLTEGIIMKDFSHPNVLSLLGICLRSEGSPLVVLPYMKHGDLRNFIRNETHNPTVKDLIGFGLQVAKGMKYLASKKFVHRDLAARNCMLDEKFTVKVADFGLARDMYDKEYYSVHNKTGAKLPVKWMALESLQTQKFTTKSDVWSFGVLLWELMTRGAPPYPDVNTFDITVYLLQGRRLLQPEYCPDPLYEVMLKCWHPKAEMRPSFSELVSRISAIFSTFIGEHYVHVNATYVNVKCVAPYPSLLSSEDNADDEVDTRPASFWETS
# T2 sequence (P29317 24-976): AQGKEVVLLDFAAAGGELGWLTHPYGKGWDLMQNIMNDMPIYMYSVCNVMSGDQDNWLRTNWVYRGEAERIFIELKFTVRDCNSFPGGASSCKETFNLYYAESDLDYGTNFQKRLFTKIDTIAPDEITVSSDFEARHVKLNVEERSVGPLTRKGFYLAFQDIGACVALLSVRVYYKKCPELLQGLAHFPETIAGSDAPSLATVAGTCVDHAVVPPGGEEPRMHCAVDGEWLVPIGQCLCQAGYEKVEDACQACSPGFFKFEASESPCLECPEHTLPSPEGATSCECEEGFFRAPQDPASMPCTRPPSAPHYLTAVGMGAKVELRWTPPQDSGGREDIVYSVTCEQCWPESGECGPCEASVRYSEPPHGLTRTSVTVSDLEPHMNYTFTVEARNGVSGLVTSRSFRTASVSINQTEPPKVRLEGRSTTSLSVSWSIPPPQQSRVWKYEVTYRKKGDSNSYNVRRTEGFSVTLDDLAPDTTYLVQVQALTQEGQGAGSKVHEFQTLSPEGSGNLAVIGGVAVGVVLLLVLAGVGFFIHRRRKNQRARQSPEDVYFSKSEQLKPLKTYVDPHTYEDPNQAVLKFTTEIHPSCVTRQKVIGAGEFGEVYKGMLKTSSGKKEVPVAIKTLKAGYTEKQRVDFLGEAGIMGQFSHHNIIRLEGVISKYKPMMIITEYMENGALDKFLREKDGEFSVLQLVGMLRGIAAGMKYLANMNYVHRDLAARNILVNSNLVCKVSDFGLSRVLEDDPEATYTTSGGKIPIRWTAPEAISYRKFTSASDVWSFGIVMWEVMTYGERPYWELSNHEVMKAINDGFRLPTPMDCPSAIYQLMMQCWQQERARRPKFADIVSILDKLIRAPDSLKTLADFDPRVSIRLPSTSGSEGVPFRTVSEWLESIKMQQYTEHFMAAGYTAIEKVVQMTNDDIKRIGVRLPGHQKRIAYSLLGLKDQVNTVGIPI
# T4 sequence (Q04912 25-1400): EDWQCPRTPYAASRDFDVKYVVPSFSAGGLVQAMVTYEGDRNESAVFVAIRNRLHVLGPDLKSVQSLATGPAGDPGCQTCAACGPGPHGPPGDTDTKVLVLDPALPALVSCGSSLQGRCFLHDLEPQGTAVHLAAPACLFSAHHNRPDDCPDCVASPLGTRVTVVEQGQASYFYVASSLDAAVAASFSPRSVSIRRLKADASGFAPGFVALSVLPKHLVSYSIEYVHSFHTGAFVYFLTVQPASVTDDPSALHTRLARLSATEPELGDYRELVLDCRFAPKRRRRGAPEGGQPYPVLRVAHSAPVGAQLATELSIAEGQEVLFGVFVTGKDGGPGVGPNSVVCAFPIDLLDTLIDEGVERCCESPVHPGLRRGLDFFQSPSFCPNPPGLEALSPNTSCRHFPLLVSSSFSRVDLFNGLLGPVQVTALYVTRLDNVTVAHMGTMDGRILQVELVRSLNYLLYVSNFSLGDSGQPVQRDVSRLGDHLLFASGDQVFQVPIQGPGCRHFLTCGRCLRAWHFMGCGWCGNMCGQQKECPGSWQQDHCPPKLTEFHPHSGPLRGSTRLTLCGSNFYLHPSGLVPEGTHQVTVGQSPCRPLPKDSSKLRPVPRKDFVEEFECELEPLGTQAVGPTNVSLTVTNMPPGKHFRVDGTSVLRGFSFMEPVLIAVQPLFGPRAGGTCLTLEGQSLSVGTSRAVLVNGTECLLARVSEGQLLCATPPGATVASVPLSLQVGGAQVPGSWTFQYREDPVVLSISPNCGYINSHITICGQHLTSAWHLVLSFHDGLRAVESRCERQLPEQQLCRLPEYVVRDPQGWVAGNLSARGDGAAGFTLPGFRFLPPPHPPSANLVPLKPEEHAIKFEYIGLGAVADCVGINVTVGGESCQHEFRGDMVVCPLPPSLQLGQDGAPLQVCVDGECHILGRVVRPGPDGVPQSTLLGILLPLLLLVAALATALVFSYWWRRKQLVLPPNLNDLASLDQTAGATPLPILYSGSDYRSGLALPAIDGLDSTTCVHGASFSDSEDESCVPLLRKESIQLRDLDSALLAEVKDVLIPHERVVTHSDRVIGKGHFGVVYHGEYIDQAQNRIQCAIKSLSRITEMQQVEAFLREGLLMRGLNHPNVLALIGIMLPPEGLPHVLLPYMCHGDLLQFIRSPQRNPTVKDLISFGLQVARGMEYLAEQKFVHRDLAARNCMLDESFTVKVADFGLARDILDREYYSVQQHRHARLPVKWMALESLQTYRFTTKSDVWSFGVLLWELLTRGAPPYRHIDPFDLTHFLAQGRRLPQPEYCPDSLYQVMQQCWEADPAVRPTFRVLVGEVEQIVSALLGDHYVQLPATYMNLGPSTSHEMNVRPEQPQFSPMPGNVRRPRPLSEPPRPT
compound,measurement,setting,value
"O=C1Nc2cc(Cl)ccc2/C1=C\c1cccc(C(F)(F)F)c1 [Compound 47, (E)-6-Chloro-3-(3-(trifluoromethyl)benzylidene)indolin-2-one]",IC50,SK-Hep1,> 10 µM
same,Bax and BCL-xL (mitochondrial apoptotic players),[1],little effect
same,Erk and Akt phosphorylation,[1],dose-dependent inhibition
same,cleaved PARP (apoptotic marker),[1],confirmed the participation of pro-apoptotic mechanism
same,cyclin-D1 and PCNA expression (cell cycling markers),[1],corresponding reduction
same,caspase-3 activity,caspase-3,activation
same,IGF-1R Phosphorylation,"IGF-1R; serum starved HuH7, 1 μM",0.22 Arbitrary units
same,IGF-1R Phosphorylation,"IGF-1R; serum starved HuH7, 5 μM",0.13 Arbitrary units
same,IGF-1R Phosphorylation,"IGF-1R; serum starved HuH7, 10 μM",0.07 Arbitrary units
same,EphA2 Phosphorylation,"EphA2 [2]; serum starved HuH7, 1 μM",0.09 Arbitrary units
same,EphA2 Phosphorylation,"EphA2 [2]; serum starved HuH7, 5 μM",0.05 Arbitrary units
same,EphA2 Phosphorylation,"EphA2 [2]; serum starved HuH7, 10 μM",0.02 Arbitrary units
same,Met Phosphorylation,"Met; serum starved HuH7, 1 μM",0.08 Arbitrary units
same,Met Phosphorylation,"Met; serum starved HuH7, 5 μM",0.05 Arbitrary units
same,Met Phosphorylation,"Met; serum starved HuH7, 10 μM",0.02 Arbitrary units
same,Ron Phosphorylation,"Ron; serum starved HuH7, 1 μM",0.06 Arbitrary units
same,Ron Phosphorylation,"Ron; serum starved HuH7, 5 μM",0.05 Arbitrary units
same,Ron Phosphorylation,"Ron; serum starved HuH7, 10 μM",0.03 Arbitrary units
same,EphA2 phosphorylation by immunoblot,EphA2 [3],proportional reduction
same,EGFR phosphorylation by immunoblot,EGFR,unexpected increase
